# Assay results from patent publication US20170190671A1, “BIS(ARYL)CATECHOL DERIVATIVES AS HERBICIDES” (E I DU PONT DE NEMOURS AND COMPANY, priority 2014, published 2017).
# How the values were obtained:
# Assay in all cases: Test C postemergence
# Type in all cases: in vivo
# [1] = test system: yellow nutsedge (Cyperus esculentus); details: Cyperus, post-emergence, 336 h, Postemergence, scale 0 to 100, read-out: Plant response rating, Nutsedge, Yellow
# [2] = test system: Italian ryegrass (Lolium multiflorum); details: Lolium multiflorum, post-emergence, 336 h, Postemergence, scale 0 to 100, read-out: Plant response rating, Ryegrass, Italian
# [3] = test system: blackgrass (Alopecurus myosuroides); details: Alopecurus myosuroides, post-emergence, 336 h, Postemergence, scale 0 to 100, read-out: Plant response rating, Blackgrass
# [4] = test system: waterhemp (common waterhemp, Amaranthus rudis); details: Amaranthus tuberculatus, post-emergence, Postemergence, scale 0 to 100, read-out: Plant response rating, Waterhemp
# [5] = test system: chickweed (common chickweed, Stellaria media); details: Stellaria media, post-emergence, Postemergence, scale 0 to 100, read-out: Plant response rating, Chickweed
# [6] = test system: ragweed (common ragweed, Ambrosia elatior); details: Ambrosia artemisiifolia, post-emergence, 336 h, Postemergence, scale 0 to 100, read-out: Plant response rating, Ragweed
# [7] = test system: wild oat (Avena fatua); details: Avena fatua, post-emergence, Postemergence, scale 0 to 100, read-out: Plant response rating, Oat, Wild
# [8] = test system: barnyardgrass (Echinochloa crus-galli); details: Echinochloa crus-galli, post-emergence, Postemergence, scale 0 to 100, read-out: Plant response rating, Barnyardgrass
# [9] = test system: lambsquarters (Chenopodium album); details: Chenopodium album, post-emergence, 336 h, Postemergence, scale 0 to 100, read-out: Plant response rating, Lambsquarters
# [10] = test system: oilseed rape (Brassica napus); details: Brassica napus, post-emergence, Postemergence, scale 0 to 100, read-out: Plant response rating, Oilseed Rape
# [11] = test system: soybean (Glycine max); details: Glycine max, post-emergence, Postemergence, scale 0 to 100, read-out: Plant response rating, Soybean
# [12] = test system: pigweed (Amaranthus retroflexus); details: Amaranthus retroflexus, post-emergence, 336 h, Postemergence, scale 0 to 100, read-out: Plant response rating, Pigweed
# [13] = test system: corn (Zea mays); details: Zea mays, post-emergence, 336 h, Postemergence, scale 0 to 100
# [14] = test system: johnsongrass (Sorghum halepense); details: Sorghum halepense, post-emergence, 336 h, Postemergence, scale 0 to 100, read-out: Plant response rating, Johnsongrass
# [15] = test system: giant foxtail (Setaria faberii); details: Setaria faberi, post-emergence, 336 h, Postemergence, scale 0 to 100, read-out: Plant response rating, Foxtail, Giant
smiles,measurement,setting,value
"Fc1cccc(Oc2ncc(Cl)cn2)c1Oc1ncc(Br)cn1 [Compound 27, 5-bromo-2-[2-fluoro-6-[(5-chloro-2-pyrimidinyl)oxy]phenoxy]pyrimidine]",pest or weed control at 31 g/ha,[1]; 31 g ai/ha,0%
same,pest or weed control at 62 g/ha,[1]; 62 g ai/ha,5%
same,pest or weed control at 125 g/ha,[1]; 125 g ai/ha,10%
same,pest or weed control at 250 g/ha,[1]; 250 g ai/ha,10%
same,pest or weed control at 31 g/ha,[2]; 31 g ai/ha,0%
same,pest or weed control at 62 g/ha,[2]; 62 g ai/ha,0%
same,pest or weed control at 125 g/ha,[2]; 125 g ai/ha,5%
same,pest or weed control at 250 g/ha,[2]; 250 g ai/ha,5%
same,pest or weed control at 31 g/ha,[3]; 31 g ai/ha,5%
same,pest or weed control at 62 g/ha,[3]; 62 g ai/ha,5%
same,pest or weed control at 125 g/ha,[3]; 125 g ai/ha,5%
same,pest or weed control at 250 g/ha,[3]; 250 g ai/ha,5%
same,pest or weed control at 31 g/ha,[4]; 31 g ai/ha,70%
same,pest or weed control at 62 g/ha,[4]; 62 g ai/ha,75%
same,pest or weed control at 125 g/ha,[4]; 125 g ai/ha,90%
same,pest or weed control at 250 g/ha,[4]; 250 g ai/ha,100%
same,pest or weed control at 31 g/ha,[5]; 31 g ai/ha,45%
same,pest or weed control at 62 g/ha,[5]; 62 g ai/ha,40%
same,pest or weed control at 125 g/ha,[5]; 125 g ai/ha,70%
same,pest or weed control at 250 g/ha,[5]; 250 g ai/ha,80%
same,pest or weed control at 31 g/ha,[6]; 31 g ai/ha,15%
same,pest or weed control at 62 g/ha,[6]; 62 g ai/ha,35%
same,pest or weed control at 125 g/ha,[6]; 125 g ai/ha,60%
same,pest or weed control at 250 g/ha,[6]; 250 g ai/ha,80%
same,pest or weed control at 31 g/ha,[7]; 31 g ai/ha,0%
same,pest or weed control at 62 g/ha,[7]; 62 g ai/ha,5%
same,pest or weed control at 125 g/ha,[7]; 125 g ai/ha,10%
same,pest or weed control at 250 g/ha,[7]; 250 g ai/ha,15%
same,pest or weed control at 31 g/ha,[8]; 31 g ai/ha,5%
same,pest or weed control at 62 g/ha,[8]; 62 g ai/ha,5%
same,pest or weed control at 125 g/ha,[8]; 125 g ai/ha,5%
same,pest or weed control at 250 g/ha,[8]; 250 g ai/ha,5%
same,pest or weed control at 31 g/ha,[9]; 31 g ai/ha,55%
same,pest or weed control at 62 g/ha,[9]; 62 g ai/ha,65%
same,pest or weed control at 125 g/ha,[9]; 125 g ai/ha,80%
same,pest or weed control at 250 g/ha,[9]; 250 g ai/ha,95%
same,plant injury at 31 g/ha,[10]; 31 g ai/ha,30%
same,plant injury at 62 g/ha,[10]; 62 g ai/ha,50%
same,plant injury at 125 g/ha,[10]; 125 g ai/ha,55%
same,plant injury at 250 g/ha,[10]; 250 g ai/ha,60%
same,plant injury at 31 g/ha,[11]; 31 g ai/ha,65%
same,plant injury at 62 g/ha,[11]; 62 g ai/ha,75%
same,plant injury at 125 g/ha,[11]; 125 g ai/ha,90%
same,plant injury at 250 g/ha,[11]; 250 g ai/ha,90%
same,pest or weed control at 31 g/ha,[12]; 31 g ai/ha,85%
same,pest or weed control at 62 g/ha,[12]; 62 g ai/ha,90%
same,pest or weed control at 125 g/ha,[12]; 125 g ai/ha,95%
same,pest or weed control at 250 g/ha,[12]; 250 g ai/ha,98%
same,"Corn plant response rating (crop injury, 0 = no effect, 100 = complete kill) at 31 g/ha",[13]; 31 g ai/ha,10%
same,"Corn plant response rating (crop injury, 0 = no effect, 100 = complete kill) at 62 g/ha",[13]; 62 g ai/ha,15%
same,"Corn plant response rating (crop injury, 0 = no effect, 100 = complete kill) at 125 g/ha",[13]; 125 g ai/ha,20%
same,"Corn plant response rating (crop injury, 0 = no effect, 100 = complete kill) at 250 g/ha",[13]; 250 g ai/ha,25%
same,pest or weed control at 31 g/ha,[14]; 31 g ai/ha,0%
same,pest or weed control at 62 g/ha,[14]; 62 g ai/ha,5%
same,pest or weed control at 125 g/ha,[14]; 125 g ai/ha,5%
same,pest or weed control at 250 g/ha,[14]; 250 g ai/ha,10%
same,pest or weed control at 31 g/ha,[15]; 31 g ai/ha,0%
same,pest or weed control at 62 g/ha,[15]; 62 g ai/ha,5%
same,pest or weed control at 125 g/ha,[15]; 125 g ai/ha,5%
same,pest or weed control at 250 g/ha,[15]; 250 g ai/ha,10%
